pIC50: −log10 of the molar value. Where a name gives a salt, the structure may show the parent alone.
System: LPS induced IL-6 secretion from whole blood
Test: Measurement of LPS Induced IL-6 Secretion from Whole Blood
Type: cell-based
Details: IL-6 by immunoassay, LPS 200 ng/ml, 24 hours
Description: Activation of monocytic cells by agonists of toll-like receptors such as bacterial lipopolysaccharide (LPS) results in production of key inflammatory mediators including IL-6. Such pathways are widely considered to be central to the pathophysiology of a range of auto-immune and inflammatory disorders.
Compounds to be tested are diluted to give a range of appropriate concentrations of which 1 μl of the diluted stocks is added to a 96 well plate. Following addition of whole blood (130 μl) the plates are incubated at 37 degrees (5% CO2) for 30 min before the addition of 10 μl of 2.8 ug/ml LPS, diluted in complete RPMI 1640 (final concentration=200 ng/ml), to give a total volume of 140 μl per well. After further incubation for 24 hours at 37 degrees, 140 μl of PBS are added to each well. The plates are sealed, shaken for 10 minutes and then centrifuged (2500 rpm×10 min). 100 μl of the supernatant are removed and IL-6 levels assayed by immunoassay (typically by MesoScale Discovery technology) either immediately or following storage at −20 degrees. Concentration response curves for each compound was generated from the data and an IC50 value was calculated.

pIC50, 5.50 to 7.30:
CC(=O)N1c2ccc(-c3ccc(C(=O)NCCN(C)C)nc3)cc2[C@H](Nc2ccc(C#N)cn2)C[C@@H]1C [Example 28, 5-((2S,4R)-1-acetyl-4-((5-cyanopyridin-2-yl)amino)-2-methyl-1,2,3,4 tetrahydroquinolin-6-yl)-N-(2-(dimethylamino)ethyl)picolinamide]
CC(=O)N1c2ccc(-c3ccc(CC(=O)NCCN)cc3)cc2[C@H](NC(=O)OC(C)C)C[C@@H]1C [Example 9, Isopropyl ((2S,4R)-1-acetyl-6-(4-(2-((2-aminoethyl)amino)-2-oxoethyl)phenyl)-2-methyl-1,2,3,4-tetrahydroquinolin-4-yl)carbamate hydrochloride]
CC(=O)N1c2ccc(-c3ccc(CCC(=O)NCCO)cc3)cc2[C@H](Nc2ccc(C#N)cn2)C[C@@H]1C [Example 2, 3-(4-((2S,4R)-1-Acetyl-4-((5-cyanopyridin-2-yl)amino)-2-methyl-1,2,3,4-tetrahydroquinolin-6-yl)phenyl)-N-(2-hydroxyethyl)propanamide]
CC(=O)N1c2ccc(-c3ccc(C(=O)N4CCOCC4)cn3)cc2[C@H](Nc2cnc(C)cn2)C[C@@H]1C [Example 60, 1-((2S,4R)-2-methyl-4-((5-methylpyrazin-2-yl)amino)-6-(5-(morpholine-4-carbonyl)pyridin-2-yl)-3,4-dihydroquinolin-1(2H)-yl)ethanone]
CC(=O)N1c2ccc(-c3ccc(C(=O)NC(CO)CO)cn3)cc2[C@H](Nc2ccccn2)C[C@@H]1C [Example 25, 6-((2S,4R)-1-acetyl-2-methyl-4-(pyridin-2-ylamino)-1,2,3,4-tetrahydroquinolin-6-yl)-N-(1,3-dihydroxypropan-2-yl)nicotinamide]
CC(=O)N1c2ccc(-c3ccc(C(=O)NCCCO)nc3)cc2[C@H](Nc2ccc(C#N)cn2)C[C@@H]1C [Example 31, 5-((2S,4R)-1-acetyl-4-((5-cyanopyridin-2-yl)amino)-2-methyl-1,2,3,4-tetrahydroquinolin-6-yl)-N-(3-hydroxypropyl)picolinamide]
CC(=O)N1c2ccc(-c3ccc(C(=O)N4CCOCC4)nc3)cc2[C@H](Nc2ccc(C)cn2)C[C@@H]1C [Example 51, 1-((2S,4R)-2-methyl-4-((5-methylpyridin-2-yl)amino)-6-(6-(morpholine-4-carbonyl)pyridin-3-yl)-3,4-dihydroquinolin-1(2H)-yl)ethanone]
CC(=O)N1c2ccc(-c3ccc(C(=O)N4CCOCC4)cn3)cc2[C@H](Nc2cccc(Cl)c2)C[C@@H]1C [Example 63]
CC(=O)N1c2ccc(-c3ccc(C(=O)NCCN(C)C)cc3)cc2[C@H](Nc2ccc(Cl)cc2)C[C@@H]1C [Example 38, 4-((2S,4R)-1-acetyl-4-((4-chlorophenyl)amino)-2-methyl-1,2,3,4-tetrahydroquinolin-6-yl)-N-(2-(dimethylamino)ethyl)benzamide]
CC(=O)N1c2ccc(-c3ccc(C(=O)NCCO)cn3)cc2[C@H](Nc2ccc(C#N)cn2)C[C@@H]1C [Example 12, 6-((2S,4R)-1-acetyl-4-((5-cyanopyridin-2-yl)amino)-2-methyl-1,2,3,4-tetrahydroquinolin-6-yl)-N-(2-hydroxyethyl)nicotinamide]
CC(=O)N1c2ccc(-c3ccc(C(=O)N4CCOCC4)cn3)cc2[C@H](Nc2ccc(Cl)cc2)C[C@@H]1C [Example 64, 1-((2S,4R)-4-((4-chlorophenyl)amino)-2-methyl-6-(5-(morpholine-4-carbonyl)pyridin-2-yl)-3,4-dihydroquinolin-1(2H)-yl)ethanone]
CC(=O)N1c2ccc(-c3ccc(C(=O)NC(CO)CO)cn3)cc2[C@H](Nc2ccc(C#N)cn2)C[C@@H]1C [Example 11, 6-((2S,4R)-1-acetyl-4-((5-cyanopyridin-2-yl)amino)-2-methyl-1,2,3,4-tetrahydroquinolin-6-yl)-N-(1,3-dihydroxypropan-2-yl)nicotinamide]
CC(=O)N1c2ccc(-c3ccc(CC(=O)NCCO)cc3)cc2[C@H](Nc2ccc(C#N)cn2)C[C@@H]1C [Example 3, 2-(4-((2S,4R)-1-Acetyl-4-((5-cyanopyridin-2-yl)amino)-2-methyl-1,2,3,4-tetrahydroquinolin-6-yl)phenyl)-N-(2-hydroxyethyl)acetamide]
CC(=O)N1c2ccc(-c3ccc(C(=O)N4CCN(C)CC4)nc3)cc2[C@H](Nc2ccc(C#N)cn2)C[C@@H]1C [Example 34, 6-(((2S,4R)-1-acetyl-2-methyl-6-(6-(4-methylpiperazine-1-carbonyl)pyridin-3-yl)-1,2,3,4-tetrahydroquinolin-4-yl)amino)nicotinonitrile]
CC(=O)N1c2ccc(-c3ccc(C(=O)N4CC(N)C4)nc3)cc2[C@H](Nc2ccc(C#N)cn2)C[C@@H]1C [Example 37, 6-(((2S,4R)-1-acetyl-6-(6-(3-aminoazetidine-1-carbonyl)pyridin-3-yl)-2-methyl-1,2,3,4-tetrahydroquinolin-4-yl)amino)nicotinonitrile]
CC(=O)N1c2ccc(-c3ccc(C(=O)N4CCOCC4)cc3)cc2[C@H](Nc2ccc(C)cn2)C[C@@H]1C [Example 56, 1-((2S,4R)-2-methyl-4-((5-methylpyridin-2-yl)amino)-6-(4-(morpholine-4-carbonyl)phenyl)-3,4-dihydroquinolin-1(2H)-yl)ethanone formate]
CC(=O)N1c2ccc(-c3ccc(C(=O)NCCO)cc3)cc2[C@H](Nc2ccccn2)C[C@@H]1C [Example 19, 4-((2S,4R)-1-acetyl-2-methyl-4-(pyridin-2-ylamino)-1,2,3,4-tetrahydroquinolin-6-yl)-N-(2-hydroxyethyl)benzamide]
CC(=O)N1c2ccc(-c3ccc(C(=O)N4CCOCC4)nc3)cc2[C@H](Nc2ccc(Cl)cn2)C[C@@H]1C [Example 52, 1-((2S,4R)-4-((5-chloropyridin-2-yl)amino)-2-methyl-6-(6-(morpholine-4-carbonyl)pyridin-3-yl)-3,4-dihydroquinolin-1(2H)-yl)ethanone]
CC(=O)N1c2ccc(-c3ccc(C(=O)NCCO)cc3)cc2[C@H](Nc2ccccc2)C[C@@H]1C [Example 46, 4-((2S,4R)-1-acetyl-2-methyl-4-(phenylamino)-1,2,3,4-tetrahydroquinolin-6-yl)-N-(2-hydroxyethyl)benzamide]
CC(=O)N1c2ccc(-c3ccc(C(=O)NCCN(C)C)cc3)cc2[C@H](NC(=O)OC(C)C)C[C@@H]1C [Example 7, Isopropyl ((2S,4R)-1-acetyl-6-(4-((2-(dimethylamino)ethyl)carbamoyl)phenyl)-2-methyl-1,2,3,4-tetrahydroquinolin-4-yl)carbamate]
CC(=O)N1c2ccc(-c3ccc(C(=O)NC[C@H](C)O)cc3)cc2[C@H](Nc2ccc(Cl)cc2)C[C@@H]1C [Example 42, 4-((2S,4R)-1-acetyl-4-((4-chlorophenyl)amino)-2-methyl-1,2,3,4-tetrahydroquinolin-6-yl)-N—((S)-2-hydroxypropyl)benzamide]
CC(=O)N1c2ccc(-c3ccc(C(=O)NCCO)cc3)cc2[C@H](Nc2ccc(C#N)cn2)C[C@@H]1C [Example 14, 4-((2S,4R)-1-acetyl-4-((5-cyanopyridin-2-yl)amino)-2-methyl-1,2,3,4-tetrahydroquinolin-6-yl)-N-(2-hydroxyethyl)benzamide]
CC(=O)N1c2ccc(-c3ccc(C(=O)NCCO)nc3)cc2[C@H](Nc2cnc(C#N)cn2)C[C@@H]1C [Example 49, 5-((2S,4R)-1-acetyl-4-((5-cyanopyrazin-2-yl)amino)-2-methyl-1,2,3,4-tetrahydroquinolin-6-yl)-N-(2-hydroxyethyl)picolinamide]
CC(=O)N1c2ccc(-c3ccc(C(=O)N4CCOCC4)cn3)cc2[C@H](Nc2cnccn2)C[C@@H]1C [Example 58, 1-((2S,4R)-2-methyl-6-(5-(morpholine-4-carbonyl)pyridin-2-yl)-4-(pyrazin-2-ylamino)-3,4-dihydroquinolin-1(2H)-yl)ethanone]
CC(=O)N1c2ccc(-c3ccc(C(=O)N4CCOCC4)cn3)cc2[C@H](Nc2ccccn2)C[C@@H]1C [Example 61, 1-((2S,4R)-2-methyl-6-(5-(morpholine-4-carbonyl)pyridin-2-yl)-4-(pyridin-2-ylamino)-3,4-dihydroquinolin-1(2H)-yl)ethanone]
CC(=O)N1c2ccc(-c3ccc(C(=O)N4CCOCC4)nc3)cc2[C@H](Nc2cccc(Cl)c2)C[C@@H]1C [Example 62]
CC(=O)N1c2ccc(-c3ccc(C(=O)NC(CO)CO)cc3)cc2[C@H](Nc2ccc(C#N)cn2)C[C@@H]1C [Example 15, 4-((2S,4R)-1-acetyl-4-((5-cyanopyridin-2-yl)amino)-2-methyl-1,2,3,4-tetrahydroquinolin-6-yl)-N-(1,3-dihydroxypropan-2-yl)benzamide]
CC(=O)N1c2ccc(-c3ccc(C(=O)N4CCOCC4)nc3)cc2[C@H](Nc2cnc(C)cn2)C[C@@H]1C [Example 54, 1-((2S,4R)-2-methyl-4-((5-methylpyrazin-2-yl)amino)-6-(6-(morpholine-4-carbonyl)pyridin-3-yl)-3,4-dihydroquinolin-1(2H)-yl)ethanone]
CC(=O)N1c2ccc(-c3ccc(C(=O)NC(CO)CO)cc3)cc2[C@H](Nc2ccccn2)C[C@@H]1C [Example 21, 4-((2S,4R)-1-acetyl-2-methyl-4-(pyridin-2-ylamino)-1,2,3,4-tetrahydroquinolin-6-yl)-N-(1,3-dihydroxypropan-2-yl)benzamide]

Source: patent publication US8993554B2, “Tetrahydroquinoline derivatives useful as bromodomain inhibitors” (GlaxoSmithKline LLC, priority 2011, dated 2015)
